Measured values taken from patent US8481752B2, “Fluorescent imaging with substituted cyanine dyes” (Li-Cor, Inc., priority 2009, dated 2013).

Key:
[1] = Photostability on nitrocellulose under repeated Odyssey scans; assay type: physicochemical; settings: for relative fluorescence with additional scans: as GAR conjugates on nitrocellulose, normalized to first scan, 100 scans
Description: The photostability of compound 8 was compared to that of Alexa Fluor 680 and IRDye 700DX. IRDye 700DX is one of the most photostable 700 nm fluorescent dyes known. Test samples were prepared by spotting equimolar amounts of dye-labeled conjugates (i.e., goat anti-rabbit (GAR) secondary antibodies labeled with the appropriate dye) onto nitrocellulose membrane. The membrane was then scanned repeatedly on an Odyssey Infrared Imager, so that the prolonged exposure of the dyes to the laser source induced some photodegradation. The signal intensity for each dye was normalized to the signal in the first scan for that dye (FIG. 9A-B).

[2] = Water solubility of the dye; assay type: physicochemical

CC1(C)C(/C=C/C(=C/C=C2/N(CCCS(=O)(=O)O)c3ccc4c(S(=O)(=O)[O-])cc(S(=O)(=O)O)cc4c3C2(C)C)c2cccc(CCCCC(=O)O)c2)=[N+](CCCS(=O)(=O)O)c2ccc3c(S(=O)(=O)O)cc(S(=O)(=O)O)cc3c21 [Compound 8, Sodium 2-((1E,3Z,5E)-3-(3-(4-Carboxybutyl)phenyl)-5-(1,1-dimethyl-6,8-disulfonato-3-(3-sulfonatopropyl)-1H-benzo[e]indol-2(3H)-ylidene)penta-1,3-dienyl)-1,1-dimethyl-3-(3-sulfonatopropyl)-1H-benzo[e]indolium-6,8-disulfonate]
resistance to photodegradation ([1]; as GAR conjugate): good resistance to photodegradation
relative fluorescence with additional scans [1]: decreased slightly
water solubility [2]: highly water-soluble

C[Si](C)(CCC[N+](CCCS(=O)(=O)[O-])(CCCS(=O)(=O)[O-])CCCS(=O)(=O)[O-])O[Si]1(O[Si](C)(C)CCC[N+](CCCS(=O)(=O)[O-])(CCCS(=O)(=O)[O-])CCCS(=O)(=O)[O-])n2c3c4ccccc4c2N=C2N=C(N=c4c5ccccc5c(n41)=NC1=NC(=N3)c3ccccc31)c1cccc(OCCCOC(=O)NCCCCCC(=O)ON3C(=O)CCC3=O)c12.[Na+].[Na+].[Na+].[Na+] (stereo not shown) [IRDye 700DX]
relative fluorescence with additional scans [1]: essentially unchanged
